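Interpolation was linear, between the two tested concentrations surrounding the appropriate level; five concentrations were tested over 48 hours in 96-well plates. Here, GI50 denotes the concentration required for 50% inhibition of growth.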 Activity calls are given as the source filed them. No stated cut-off is given here; in the data, active = GI50 up to about 1.1 µM and inactive = higher.
What was measured:
Test in all cases: growth of human tumour cells (NCI), 48 h
[1] = test system: NCI-H460
[2] = test system: HOP-62
[3] = test system: COLO 205
[4] = test system: SF-295
[5] = test system: TK-10
[6] = test system: SNB-19
[7] = test system: ACHN
[8] = test system: M14
[9] = test system: HCC 2998
[10] = test system: IGROV-1
[11] = test system: RPMI-8226
[12] = test system: Malme-3M
[13] = test system: HCT-15
[14] = test system: A549
[15] = test system: OVCAR-4
[16] = test system: OVCAR-3
[17] = test system: HOP-92
[18] = test system: SR

Compound | GI50 [1] | GI50 [2] | GI50 [3] | GI50 [4] | GI50 [5] | GI50 [6] | GI50 [7] | GI50 [8] | GI50 [9] | GI50 [10] | GI50 [11] | GI50 [12] | GI50 [13] | GI50 [14] | GI50 [15] | GI50 [16] | GI50 [17] | GI50 [18]
COC(=O)C1=C(C[S+]([O-])c2ccc([N+](=O)[O-])cc2[N+](=O)[O-])ON(C)C1c1ccccc1 (stereo unspecified) | > 90.4 µM (inactive) | 39 µM (inactive) | 24.2 µM (inactive) | 46.8 µM (inactive) | > 48.9 µM (inactive) | 32.8 µM (inactive) | 67.6 µM (inactive) | 96.6 µM (inactive) | > 37.8 µM (inactive) | > 84.5 µM (inactive) | 13.4 µM (inactive) | > 84.5 µM (inactive) | 37.8 µM | 99.8 µM (inactive) | 48.4 µM (inactive) | 43.2 µM (inactive) |  | 
COc1cc2c(cc1OC)C(Cc1cc(Br)c(OC)c(OC)c1)=[N+](C)CC2 | 58.1 µM (inactive) | 43.4 µM (inactive) | 40.6 µM (inactive) | 30.5 µM (inactive) | 59.6 µM (inactive) | 55.6 µM (inactive) | 90.4 µM (inactive) | 69.8 µM (inactive) | > 100 µM (inactive) | > 100 µM (inactive) | 43.2 µM (inactive) | > 100 µM (inactive) | > 100 µM | 34.8 µM (inactive) | 19.2 µM (inactive) | 28.2 µM (inactive) | 28.2 µM (inactive) | 
Cc1ccc(NC(=O)c2cc3cc(/N=N/c4ccccc4C(=O)O)ccc3oc2=O)cc1 | 49.3 µM (inactive) | > 100 µM (inactive) | 35.3 µM (inactive) | 44.4 µM (inactive) | 58.9 µM (inactive) | 28.4 µM (inactive) | 53.2 µM (inactive) | 55.3 µM (inactive) |  | 41.2 µM (inactive) | 18.6 µM (inactive) | 43.2 µM (inactive) | 34.5 µM | 40.9 µM (inactive) |  | 25.2 µM (inactive) |  | 
CCCCCCCCCCCCCCCC(=O)OCC1OC(n2cc(F)c(=O)[nH]c2=O)C(N)C(O)C1O (stereo unspecified) |  | 19.7 µM (inactive) | 18.5 µM (inactive) | 17.1 µM (inactive) | 21.9 µM (inactive) | 22.2 µM (inactive) | 18.8 µM (inactive) | 17.8 µM (inactive) | 14.5 µM (inactive) | > 10 µM (inactive) | 23.3 µM (inactive) | 19.4 µM (inactive) |  | 19 µM (inactive) | 15.8 µM (inactive) | 2.19 µM (inactive) | 20.1 µM (inactive) | 
O=c1[nH]c(-c2ccccc2)nc2ccc(Cl)cc12 |  |  | > 100 µM (inactive) | 73.6 µM (inactive) | 35.2 µM (inactive) | 79.3 µM (inactive) | 73.1 µM (inactive) |  | > 100 µM (inactive) |  | 33.2 µM (inactive) | 48.6 µM (inactive) | 35.7 µM | > 100 µM (inactive) | 30.3 µM (inactive) | 31 µM (inactive) | 16.5 µM (inactive) | 85.5 µM (inactive)
Cc1nc(N2N=C(c3ccc(Cl)cc3)CCC2=O)sc1[N+](=O)[O-] | > 100 µM (inactive) | > 100 µM (inactive) | > 100 µM (inactive) | > 100 µM (inactive) | > 100 µM (inactive) | > 100 µM (inactive) | > 100 µM (inactive) | > 100 µM (inactive) | > 100 µM (inactive) | > 100 µM (inactive) | > 100 µM (inactive) | > 100 µM (inactive) | > 100 µM | > 100 µM (inactive) | > 100 µM (inactive) | > 100 µM (inactive) |  | > 100 µM (inactive)
Brc1ccccc1C1SCc2nc3ccccc3n21 (stereo unspecified) | 17.4 µM (inactive) | 19 µM (inactive) | 16.7 µM (inactive) | 23.8 µM (inactive) | 20 µM (inactive) |  | 16.4 µM (inactive) | 17.2 µM (inactive) |  | 18.6 µM (inactive) | 13.7 µM (inactive) | 18.8 µM (inactive) | 9.84 µM | 26.1 µM (inactive) | 23.8 µM (inactive) | 13.5 µM (inactive) | 10.8 µM (inactive) | 12.6 µM (inactive)
COCCCNC(=O)C1C(=O)N(CCCOC)C(=O)/C1=N\N (stereo unspecified) | > 100 µM (inactive) | > 100 µM (inactive) | > 100 µM (inactive) | > 100 µM (inactive) | > 100 µM (inactive) | > 100 µM (inactive) | > 100 µM (inactive) | > 100 µM (inactive) | > 100 µM (inactive) |  | > 100 µM (inactive) | > 100 µM (inactive) | > 100 µM | > 100 µM (inactive) | > 100 µM (inactive) | > 100 µM (inactive) | > 100 µM (inactive) | 
CCCCCCCCC(=O)N(C)C1C2CN3CCC(O2)C13 (stereo unspecified) | > 100 µM (inactive) | > 100 µM (inactive) | > 100 µM (inactive) | > 100 µM (inactive) | > 100 µM (inactive) | > 100 µM (inactive) | > 100 µM (inactive) | > 100 µM (inactive) | > 100 µM (inactive) | > 100 µM (inactive) | > 100 µM (inactive) | > 100 µM (inactive) | > 100 µM | > 100 µM (inactive) | > 100 µM (inactive) | > 100 µM (inactive) |  | 
O=C(OCc1ccccc1C1CSCSC1)c1cc(C(=O)OCc2ccccc2C2CSCSC2)c(C(=O)OCc2ccccc2C2CSCSC2)cc1C(=O)OCc1ccccc1C1CSCSC1 | > 100 µM (inactive) | > 100 µM (inactive) | > 100 µM (inactive) | > 100 µM (inactive) | > 100 µM (inactive) |  | > 100 µM (inactive) | > 100 µM (inactive) |  | > 100 µM (inactive) | > 100 µM (inactive) | > 100 µM (inactive) | > 100 µM | > 100 µM (inactive) | > 100 µM (inactive) | > 100 µM (inactive) | > 100 µM (inactive) | > 100 µM (inactive)
NCCCNCc1c2ccccc2c(CNCCCN)c2ccccc12 | 16.4 µM (inactive) | 22.9 µM (inactive) | 7.66 µM (inactive) | 22.3 µM (inactive) | 32.5 µM (inactive) | 33.2 µM (inactive) | 26.7 µM (inactive) | > 10 µM (inactive) | 17 µM (inactive) | 44.2 µM (inactive) |  | 11.7 µM (inactive) | 22 µM | 19.2 µM (inactive) | 11.1 µM (inactive) | 28.3 µM (inactive) | 11.5 µM (inactive) | 
CC(O)C(C(=O)O)N(CC1(O)OCC(O)C(O)C1O)N=O (stereo unspecified) | > 100 µM (inactive) | > 100 µM (inactive) | > 100 µM (inactive) |  | > 100 µM (inactive) |  | > 100 µM (inactive) | > 100 µM (inactive) | > 100 µM (inactive) | > 100 µM (inactive) | > 100 µM (inactive) | > 100 µM (inactive) |  | > 100 µM (inactive) |  | > 100 µM (inactive) | > 100 µM (inactive) | 
OCC(O)C(O)C(O)C(O)c1nnn[nH]1 (stereo unspecified) | > 100 µM (inactive) | > 100 µM (inactive) | > 100 µM (inactive) | > 100 µM (inactive) |  |  | > 100 µM (inactive) | > 100 µM (inactive) |  | > 100 µM (inactive) | > 100 µM (inactive) | > 100 µM (inactive) | > 100 µM | > 100 µM (inactive) | > 100 µM (inactive) | > 100 µM (inactive) | > 100 µM (inactive) | > 100 µM (inactive)
COC(=O)c1c/c(=N\NC(=O)CC(=O)Nc2ccccc2Cl)c2ccccc2o1 | > 100 µM (inactive) | > 100 µM (inactive) | > 100 µM (inactive) | > 100 µM (inactive) | > 100 µM (inactive) | > 100 µM (inactive) | > 100 µM (inactive) | > 100 µM (inactive) | 65.3 µM (inactive) | > 100 µM (inactive) | > 100 µM (inactive) |  | > 100 µM | > 100 µM (inactive) | > 100 µM (inactive) | > 100 µM (inactive) |  | > 100 µM (inactive)
[O-][Cl+3]([O-])([O-])[O-].c1ccc(C[P+]2(c3ccccc3)CCCCC2)cc1 | > 100 µM (inactive) | > 100 µM (inactive) | 34 µM (inactive) | > 100 µM (inactive) | > 100 µM (inactive) | > 100 µM (inactive) | > 100 µM (inactive) | > 100 µM (inactive) | 70.8 µM (inactive) | > 100 µM (inactive) | 34.7 µM (inactive) | > 100 µM (inactive) | > 100 µM | > 100 µM (inactive) | > 100 µM (inactive) | 73.1 µM (inactive) |  | 86.7 µM (inactive)
COc1cc(Br)c(/C=N\c2cccc3ccc(OS(=O)(=O)c4ccc([N+](=O)[O-])cc4)cc23)cc1OC | > 100 µM (inactive) | > 100 µM (inactive) | > 100 µM (inactive) | 5.06 µM (inactive) |  | 63.4 µM (inactive) | 12.4 µM (inactive) |  | 36.4 µM (inactive) | > 100 µM (inactive) | > 100 µM (inactive) | > 100 µM (inactive) | 10.5 µM | 33.7 µM (inactive) | > 100 µM (inactive) | > 100 µM (inactive) | 47.3 µM (inactive) | > 100 µM (inactive)
O=C(CSc1nnc(-c2ccc(/N=C\c3ccc(Cl)cc3)cc2)o1)Nc1ccc(Cl)cc1Cl | > 100 µM (inactive) | 30.5 µM (inactive) | 30.7 µM (inactive) | 27.2 µM (inactive) | > 100 µM (inactive) | 31 µM (inactive) | 45.4 µM (inactive) | 16.4 µM (inactive) | > 100 µM (inactive) | 32.8 µM (inactive) | 32.4 µM (inactive) | 21.5 µM (inactive) | 23.3 µM | > 100 µM (inactive) | 30.3 µM (inactive) |  | 22.3 µM (inactive) | 

Reference: ChEMBL document CHEMBL1201862, “PubChem BioAssay data set” (2004)
